This passage reports EC50 and CC50 results from US12240857B2 (priority 2017, dated 2025).

The structures appear in SMILES notation. Structures can show the parent of a compound that is named as a salt. Where two headings read alike, the source gives them in different places.

For series [1], the system named is BDBV mucin-domain-deleted glycoprotein pseudotyped VSV. The experiment in a line: microbe, parasite or virus in culture. The format is cell-based, Bundibugyo ebolavirus. The note with it: Vesicular stomatitis virus, Vero, read-out: EC50 BDBV.
Series [2] concerns EBOV mucin-domain-deleted glycoprotein pseudotyped VSV. The series can be described thus: microbe, parasite or virus in culture. The format is cell-based, Zaire ebolavirus. The note with it: Zaire ebolavirus, Vero, read-out: EC50 EBOV.
A short description of the next series: in vitro. Conditions: African green monkey, CC50.

A word on the EC50: it is the concentration needed to bring the measured effect to its halfway point. `CC(NC(=O)C1CCCN1)C12CC3CC(CC(C3)C1)C2` (stereo in doubt) [Example D43, (2R)-N-[1-(adamantan-1-yl)ethyl] pyrrolidine-2-carboxamide]: the EC50 in series [1] (24 h) was determined as 2.5 µM; in series [2] (24 h) it was 4.6 µM.

The compound `O=C(N1CCC2(CCN(Cc3ccccc3)C2)C1)C12CC3CC(C1)CC(c1ccccc1)(C3)C2` (stereo not drawn) [Example A1, 2-benzyl-7-[(3-phenyladamantan-1-yl)carbonyl]-2,7-diazaspiro[4.4]nonane] gave a CC50 in “in vitro” of 5.8 µM. For the same compound, the results for the half-maximal effective concentration (EC50) in series [1] and in series [2] were 0.25 µM and 0.22 µM, respectively.

`O=C(CNC(=O)C12CC3CC(C1)CC(c1ccccc1)(C3)C2)N1CCC2(CCN(Cc3ccccc3)C2)C1` (stereo not drawn) [Example A2] showed a CC50 in “in vitro” of 8.5 µM. Besides, the EC50 was found to be 0.39 µM in series [1] and 0.3 µM in series [2].

Turning to `COC(=O)c1ccc(COc2ccccc2CN2CCN(C(=O)CNC(=O)C34CC5CC(C3)CC(c3ccccc3)(C5)C4)CC2)cc1` [Example A3], the CC50 in “in vitro” is greater than 3 µM. For the same compound, the values for the EC50 in series [1] and in series [2] were 1.24 µM and 0.03 µM, respectively.

In the case of `COC(=O)c1ccc(COc2ccccc2CN2CCN(C(=O)CNC(=O)CC34CC5CC(C3)CC(c3ccccc3)(C5)C4)CC2)cc1` [Example A4], the CC50 in the series “in vitro” is greater than 3 µM. For the same compound, the half-maximal effective concentration (EC50) worked out at 1.24 µM in series [1] and 0.19 µM in series [2].

`O=C(CC12CC3CC(C1)CC(c1ccccc1)(C3)C2)NCC(=O)N1CCC2(CCN(Cc3ccccc3)C2)C1` (stereo not drawn) [Example A11]: the concentration giving a half-maximal response (EC50) in series [1] was found to be 0.23 µM; in series [2], 0.2 µM.

Regarding `O=C(CNC(=O)C12CC3CC(CC1C3)C2)N1CCN(Cc2ccccc2)CC1` [Example A18], the EC50 in series [1] and in series [2] was greater than 10 µM each time.

As for `O=C(NC1CCN(Cc2ccccc2)CC1)C12CC3CC(CC1C3)C2` [Example A21], the EC50 in series [1] and in series [2] was greater than 10 µM throughout.

`CN(CCN(C)C(=O)C12CC3CC(C1)CC(c1ccccc1)(C3)C2)Cc1ccccc1` [Example A22]: the 50% effective concentration (EC50) came to 0.22 µM in series [1] and 0.26 µM in series [2].

As for `CN(C(=O)C12CC3CC(C1)CC(c1ccccc1)(C3)C2)C1CCN(Cc2ccccc2)CC1` [Example A23], the concentration giving a half-maximal response (EC50) was 0.17 µM in series [1] and 0.21 µM in series [2].

In the case of `CN1CC[C@@H](NC(=O)CC23CC4CC(C2)CC(c2ccccc2)(C4)C3)C1` [Example A40], the concentration giving a half-maximal response (EC50) is 0.16 µM in series [1] and 0.31 µM in series [2].

In the case of `O=C(CC12CC3CC(CC(C3)C1)C2)N1CC2CC1CN2Cc1ccccc1` (stereo not drawn) [Example A53], the EC50 was 9 µM in series [1] and 9.2 µM in series [2].

For `COC(=O)c1ccc(COc2ccccc2CN2CC3CC2CN3C(=O)CC23CC4CC(CC(C4)C2)C3)cc1` (stereo not drawn) [Example A57], the EC50 in series [1] is greater than 10 µM; in series [2], 2.9 µM.

`COC(=O)c1ccc(COc2ccccc2CN2CCC3(CCN(C(=O)CNC(=O)CC45CC6CC(CC(C6)C4)C5)C3)C2)cc1` (stereo not drawn) [Example A59]: the results for the concentration for a half-maximal effect (EC50) in series [1] and in series [2] were 1.5 µM and 1.1 µM, respectively.

`O=C(NC1CCNCC1)C12CC3CC(C1)CC(c1ccc([N+](=O)[O-])cc1)(C3)C2` [Example A76]: the values for the EC50 in series [1] and in series [2] were 1.06 µM and 1.05 µM, respectively.

As to `CC12CC3CC(C(=O)NCC4(O)CNC4)(C1)CC(c1ccccc1)(C3)C2` (stereo not drawn) [Example A101], the concentration giving a half-maximal response (EC50) in series [1] and in series [2] was greater than 1 µM in each case.

As for `COC(=O)[C@H]1CN(C(=O)C23CC4CC(C)(C2)CC(c2ccccc2)(C4)C3)CCN1` (stereo partly drawn) [Example A106], the concentration giving a half-maximal response (EC50) in series [1] and in series [2] was greater than 1 µM in each case.

Turning to `CCOC12CC3CC(C1)CC(C(=O)NC1CCNCC1)(C3)C2` [Example A113], the half-maximal effective concentration (EC50) in series [1] and in series [2] was greater than 1 µM throughout.

As to `N[C@H]1CC[C@H](NC(=O)C23CC4CC(C(=O)N5CCCC5)(C2)CC(c2ccccc2)(C4)C3)CC1` (stereo partly drawn) [Example A114], the EC50 in series [1] and in series [2] was greater than 1 µM each time.

As to `N[C@H]1CC[C@H](NC(=O)C23CC4CC(CO)(C2)CC(c2ccccc2)(C4)C3)CC1` (stereo partly drawn) [Example A116, trans-N-(4-aminocyclohexyl)-3-(hydroxymethyl)-5-phenyladamantane-1-carboxamide], the concentration for a half-maximal effect (EC50) in series [1] and in series [2] was greater than 1 µM in each case.

As for `CCN1CCN(C(=O)C23CC4CC(C2)CC(c2ccc(C)cc2)(C4)C3)CC1` [Example B16, 1-ethyl-4-{[3-(4-methylphenyl)adamantan 1-yl]carbonyl} piperazine], the results for the 50% effective concentration (EC50) in series [1] (24 h) and in series [2] (24 h) were 0.9 µM and 1 µM, respectively.

Turning to `CC(C)C(NC(=O)C12CC3CC(CC(C3)C1)C2)C(=O)NC1CCN(Cc2ccccc2)CC1` (stereo not drawn) [Example B17, 2-(adamantan-1-ylformamido)-N-(1-benzylpiperidin-4-yl)-3-methylbutanamide], the 50% effective concentration (EC50) in series [1] (24 h) is less than 5 µM; in series [2] (24 h), greater than 5 µM.

Turning to `Cc1ccc(C23CC4CC(CC(C(=O)N5CCN(CCO)CC5)(C4)C2)C3)cc1` [Example B18, 2-(4-{[3-(4-methylphenyl)adamantan-1-yl]carbonyl}piperazin-1-yl)ethan-1-ol], the EC50 in series [1] (24 h) and in series [2] (24 h) was greater than 5 µM in each case.

`O=C(NC1CCNCC1)C12CC3CC(CC(C3)C1)C2` [Example B19, N-(piperidin-4-yl)adamantane-1-carboxamide]: the EC50 in series [1] (24 h) is greater than 1 µM; in series [2] (24 h), 1.1 µM.

For `NCc1ccc(OCC23CC4CC(C2)CC(c2ccccc2)(C4)C3)cc1` [Example C17, {4-[(3-phenyladamantan-1-yl)methoxy]phenyl}methanamine], the figures for the EC50 in series [1] and in series [2] were 1.2 µM and greater than 1 µM, respectively.

For `COc1ccc(OCC(O)CNCC23CC4CC(CC(C4)C2)C3)c(C(C)(C)C)c1` (stereo not drawn) [Example D2, (adamantan-1-ylmethyl) [3-(2-tert-butyl-4-methoxyphenoxy)-2-hydroxypropyl]amine], the results for the EC50 in series [1] (24 h) and in series [2] (24 h) were 0.62 µM and 0.68 µM, respectively.

For the compound `CCC(NCC(O)COc1ccccc1C(C)C)C12CC3CC(CC(C3)C1)C2` (stereo not drawn) [Example D3], in series [2] (24 h), the EC50 worked out at 1.29 µM.

With `COc1cccc(COCC(O)CNCC23CC4CC(CC(C4)C2)C3)c1` (stereo not drawn) [Example D6], the figures for the EC50 in series [1] (24 h) and in series [2] (24 h) were 1.5 µM and 3.45 µM, respectively.

Turning to `O=C(CN1CCN(CCC23CC4CC(CC(C4)C2)C3)CC1)N1CCCCC1` [Example D7, 2-{4-[2-(adamantan-1-yl)ethyl]piperazin-1-yl}-1-(piperidin-1-yl) ethan-1-one], the concentration giving a half-maximal response (EC50) in series [1] (24 h) was found to be 2.6 µM; in series [2] (24 h), 6 µM.

`CCC1CCCCN1CC(O)COCCC12CC3CC(CC(C3)C1)C2` (stereo not drawn) [Example D9, 1-[2-(adamantan-1-yl)ethoxy]-3-(2-ethylpiperidin-1-yl)propan-2-ol hydrochloride]: the results for the concentration giving a half-maximal response (EC50) in series [1] (24 h) and in series [2] (24 h) were 0.21 µM and 0.25 µM, respectively.

On to `OC(COCCC12CC3CC(CC(C3)C1)C2)CN1CCc2ccccc2C1` (stereo not drawn) [Example D14, 1-[2-(adamantan-1-yl)ethoxy]-3-(1,2,3,4-tetrahydroisoquinolin-2-yl) propan-2-ol], for which the EC50 is 2.67 µM in series [1] (24 h) and 2.1 µM in series [2] (24 h).

As to `OC(COCCC12CC3CC(CC(C3)C1)C2)CN1CCN(c2ccccn2)CC1` (stereo not drawn) [Example D15, 1-[2-(adamantan-1-yl)ethoxy]-3-[4-(pyridin-2-yl)piperazin-1-yl] propan-2-ol], the EC50 in series [1] (24 h) was found to be 2.8 µM; in series [2] (24 h), 2.9 µM.

With `OCCN(CCO)CC(O)COCCC12CC3CC(CC(C3)C1)C2` (stereo not drawn) [Example D17, 2-({3-[2-(adamantan-1yl)ethoxy]-2-hydroxypropyl}(2-hydroxyethyl)amino)ethan-1-ol], the concentration giving a half-maximal response (EC50) in series [1] (24 h) is 0.6 µM; in series [2] (24 h) it was 8.8 µM.

On to `OC(COC12CC3CC(CC(C3)C1)C2)CN1CCc2ccccc2C1` (stereo not drawn) [Example D18, 1-(adamantan-1-yloxy)-3-(1,2,3,4-tetrahydroisoquinolin-2-yl)propan-2-ol], for which, in series [2] (24 h), the concentration for a half-maximal effect (EC50) was greater than 10 µM.

Turning to `COc1ccccc1N1CCN(CC(O)COC23CC4CC(CC(C4)C2)C3)CC1` (stereo not drawn) [Example D19, 1-(adamantan-1-yloxy)-3-[4-(2-methoxyphenyl)piperazin-1-yl] propan-2-ol], the concentration giving a half-maximal response (EC50) in series [2] (24 h) is greater than 10 µM.

Take `CC1CCCCN1CC(O)COC12CC3CC(CC(C3)C1)C2` (stereo not drawn) [Example D20, 1-(adamantan-1-yloxy)-3-(2-methylpiperidin-1-yl)propan-2-ol]: in series [2] (24 h), the EC50 was greater than 10 µM.

`CN1CCCN(CC(O)COc2ccc(C34CC5CC(CC(C5)C3)C4)cc2)CC1` (stereo not drawn) [Example D30, 1-[4-(adamantan-1-yl)phenoxy]-3-(4-methyl-1,4-diazepan-1-yl)propan-2-ol]: the values for the EC50 in series [1] (24 h) and in series [2] (24 h) were 0.47 µM and 0.19 µM, respectively.

On to `OC(COc1ccc(C23CC4CC(CC(C4)C2)C3)cc1)CN1CCN(Cc2ccc3c(c2)OCO3)CC1` (stereo not drawn) [Example D31, 1-[4-(adamantan-1-yl)phenoxy]-3-[4-(2H-1,3-benzodioxo1-5-ylmethyl)piperazin-1-yl]propan-2-ol], for which the EC50 in series [1] (24 h) came to 1.03 µM; in series [2] (24 h) it was 0.23 µM.

Turning to `CN(C)CCNS(=O)(=O)c1ccc(C23CC4CC(CC(C4)C2)C3)cc1` [Example D33, 4-(adamantan-1-yl)-N-[2-(dimethylamino)ethyl] benzene-1-sulfonamide], the EC50 was found to be 0.42 µM in series [1] (24 h) and 0.44 µM in series [2] (24 h).

`CN1CCN(c2nc(C34CC5CC(CC(C5)C3)C4)cs2)CC1` [Example D35, 1-[4-(adamantan-1-yl)-1,3-thiazol-2-yl]-4-methylpiperazine]: the values for the EC50 in series [1] (24 h) and in series [2] (24 h) were 0.62 µM and 0.44 µM, respectively.

Turning to `c1ccn2c(CN3CCCCC3)c(C34CC5CC(CC(C5)C3)C4)nc2c1` [Example D37], the figures for the EC50 in series [1] (24 h) and in series [2] (24 h) were 3.2 µM and 8.9 µM, respectively.

In the case of `C#CCN1CCC(C(=O)Nc2cc(C34CC5CC(CC(C5)C3)C4)n[nH]2)CC1` [Example D38, N-[5-(adamantan-1-yl)-1H-pyrazol-3-yl]-1-(prop-2-yn-1-yl) piperidine-4-carboxamide], the 50% effective concentration (EC50) in series [1] (24 h) was 6.8 µM; in series [2] (24 h) it was 3.7 µM.
